Reference: ChEMBL document CHEMBL1144822, “Gymnastatins and dankastatins, growth inhibitory metabolites of a gymnascella species from a Halichondria sponge” (2008)
In brackets after ≈: the same amount, converted by molar mass.

Columns and labels:
P388 = assay: Growth inhibition of mouse P388 cells; type: functional; details: read-out: ED50 (the source's name)
[1] = tested on: 39 human cancer cell line panel (Homo sapiens); assay: Growth inhibition of 39 human cancer cell line panel; details: read-out: Log10GI50 (converted)
MKN-7 = assay: Growth inhibition of human MKN7 cells; type: functional; details: read-out: Log10GI50 (converted)
[2] = Growth inhibition of human BSY1 cells; type: functional; details: BSY-1, read-out: Log10GI50 (converted)

Row | SMILES | EC50 (P388) | GI50 [1] | GI50 (MKN-7) | GI50 [2]
1 | CCCCCC[C@@H](C)/C=C(C)/C=C/C(=O)N[C@H]1C[C@@]2(O)C=C(Cl)C(=O)[C@@H](Cl)[C@H]2O[C@@H]1OC [DANKASTATIN A] | 0.15 µg/mL (≈ 0.307 µM) | – | – | –
2 | CCCCCC[C@@H](C)/C=C(C)/C=C/C(=O)N[C@H]1C[C@]2(O)C=C(Cl)C(=O)[C@@](Cl)(C2)[C@H]1O [GYMNASTATIN R] | 2.8 µg/mL (≈ 6.11 µM) | – | – | –
3 | CCCCCC[C@@H](C)/C=C(C)/C=C/C(=O)N[C@H]1C[C@]2(O)C=C(Cl)C(=O)[C@](Cl)([C@@H]1O)[C@H]2OC [GYMNASTATIN Q] | 1.7 µg/mL (≈ 3.48 µM) | 15.5 µM | 6.76 µM | 3.39 µM
4 | CCCCCC[C@@H](C)/C=C(C)/C=C/C(=O)N[C@@H]1CO[C@H]2[C@@H](Cl)C(=O)C(Cl)=C[C@@]2(O)C1 [DANKASTATIN B] | 0.16 µg/mL (≈ 0.349 µM) | – | – | –
